Measured values from patent US12281329B2, “Compositions and methods for immune cell modulation in adoptive immunotherapies” (Fate Therapeutics, Inc., priority 2016, dated 2025).

Assays:
HER2+A549 cells = assay: NK cell Herceptin ADCC killing of A549 cells; assay type: cell-based, human; details: NK cells cultured with GSK3i for 7 days
SKOV-3 cells = assay: In vivo tumor clearing of luciferase-expressing SKOV-3 cells by modulated NK cells with Herceptin; design: species or system NSG mice
Description: In vivo tumor clearing using Modulated NK cells: NSG mice were irradiated with 300 rads one day prior to intraperitoneal transplant of 2×10^5 luciferase-expressing SKOV-3 cells. 5 days after transplant of the ovarian carcinoma cells, mice were either left untreated, treated with Herceptin only, or treated with Herceptin, IL-15, and NK cells cultured for 7 days with IL-15 and CHIR99021. Luciferase-expressing SKOV-3 cells were imaged on day 21 using the IVIS imaging system.
Moreover, the in vivo tumor clearance ability of GSK3i cultured NK cells using the process provided herein was also tested. NSG mice were irradiated with 300 rads one day prior to intraperitoneal transplant of luciferase-expressing SKOV-3 cells. 5 days after the ovarian carcinoma cell transplant, the mice were either left untreated, treated with Herceptin only, or treated with Herceptin, IL-15, and NK cells cultured for 7 days with IL-15 and CHIR99021. […]
The in vivo tumor clearance ability of GSK3i cultured NK cells using the process provided herein was then compared to overnight primed CD3/CD19 depleted PBMC, and CD3/CD19 depleted PBMC cultured for 7 days with IL-15 and DMSO. […] Luciferase-expressing SKOV-3 cells were quantified by measuring luciferase activity using the IVIS imaging system.

NK cells [1] = assay: NK cell culture with modified K562 feeder cells: proliferation and subtype skewing; assay type: cell-based, human; details: 7 days
Method: CD3/19 depleted PBMCs were cultured for 7 days with modified K562 feeder cells in the presence of DMSO (Vehicle), 0.1 uM GSK3i CHIR99021 alone (C), or a combination of 0.1 uM GSK3i CHIR99021, 40 nM MEKi PD0325901, and 1 nM Rapamycin (CPR).

NK cells [2] = assay: Maintenance of modulated NK cell phenotype after transfer into NSG mice; assay type: in vivo
Method: The mice received only IL-15 with no GSK3i. It was shown that NK cells cultured in vitro with GSK3i for 7 days maintain their phenotypic changes in vivo for at least one week after being transferred and without the presence of the small molecule. CD57 remains high representing the maturity of the NK cells which was not the case when the cells were cultured without GSK3i (FIGS. 9A and 9B).

primary AML blasts = assay: NK cell cytotoxicity against primary AML blasts; assay type: cell-based, human; details: multi-day IL-15 + GSK3i NK cells vs overnight primed
Method: (§1) NK Cell Cytotoxicity Assay: Cytotoxicity was determined using a flow cytometry based method based on a previously published method (Kim, et al. J Immunol Methods. 2007 Aug. 31; 325(1-2): 51-66). NK cells were co-cultured with e450-proliferation dye-labelled targets for 4 hours. CellEvent™ Caspase-3/7 Green Flow Cytometry Assay Kit (Lifer Technologies) was used to assay for cell death among target cells, and samples were read on a BD LSRFortessa cytometer. Killing of SKOV-3 targets was quantified using the Incucyte Zoom instrument. SKOV-3 cells were transiently transduced with NucLight-Red BacMam reagent (Essen Biosciences) and co-cultured with the indicated NK cell populations for 74 hours, with images taken on two hour intervals. Caspase 3/7 activity was monitored to indicate target cells undergoing apoptosis using the CellEvent™ Caspase-3/7 Green Detection Reagent. The number of target cells was normalized to SKOV-3 cells cultured alone, and targets undergoing apoptosis were quantified based on caspase 3/7 activity.
Cytotoxicity of CD3/CD19 depleted PBMC cultured multiple days with IL-15 and GSK3i (GSK3i modulated NK cells) versus overnight primed NK cells against primary AML blasts were also compared. Percent specific killing of primary AML blasts from multiple patients was measured by flow cytometry-based cytotoxicity assay.

[3] = tested on: K562 tumor cells and allogeneic PBMC; assay: Dual-target cytotoxicity assay, K562 tumor cells mixed with allogeneic PBMC; assay type: cell-based, human; details: GSK3i modulated NK cells; 3-4 NK cell donors per PBMC donor
Method: Cytotoxicity of GSK3i modulated NK cells against allogeneic PBMC was evaluated in combination with K562 tumor cells in a dual-target cytotoxicity assay. Percent specific killing in PBMC+K562+overnight primed NK cells or PBMC+K562+GSK3i modulated NK cells was measured.

CD20+ Raji cells = assay: NK cell cytotoxicity assay, Raji target cells; assay type: cell-based, human; details: 4 hours; NK cells overnight IL-15 only or 7 days IL15 + GSK3i
Method: as §1
The ability of GSK3 inhibition to enhance cytotoxicity of NK cells isolated directly from donors was assessed using in vitro killing assays. […] After the target cells were incubated with the differently treated NK cells for 4 hours, the respective percentage of specific killing (target cell lysis) was calculated. […]

SMILES: Cc1c[nH]c(-c2cnc(NCCNc3ccc(C#N)cn3)nc2-c2ccc(Cl)cc2Cl)n1 [CHIR99021]
- ADCC-mediated killing of A549 cells (rate and efficiency) (HER2+A549 cells): enhanced
- in vivo SKOV-3 ADCC killing (luciferase activity) (SKOV-3 cells; 100 ug Herceptin + 2.5×10^6 cells, vs overnight primed and 7 day IL-15 + DMSO): highly and consistently effective
- tumor-suppressive effects of Herceptin antibody treatment (SKOV-3 cells; NK cells cultured 7 days with IL-15 and CHIR99021, plus Herceptin and IL-15, imaged Day 21 post-transplant): enhances
- proliferation of the activated NK cells overall (NK cells [1]; K562 feeder modified to express IL21 and 41BBL, vs vehicle): increased
- number of CD57+NK cells (NK cells [1]; modified K562 feeder cells, vs vehicle control): highest
- CD57 on NK cells from peripheral blood (NK cells [2]; 7 days after transfer of 7 day IL15+GSK3i cultured NK cells, mice received only IL-15): remains high
- CD16 and NKG2C+/CD57+ on transferred NK cells (NK cells [2]; 7 days after transfer, without small molecule): maintained in vivo
- percent specific killing of primary AML blasts (primary AML blasts): highly and consistently effective
- percent specific killing of K562 versus allogeneic PBMC [3]: selectively target those cells among normal cells
- E:T50, Raji cells (CD20+ Raji cells): 1-2
